Test system: rat glutathione S-transferase Ya subunit promoter
Test: CAT reporter activity induction in HepG2 cells carrying the rat GST Ya promoter/CAT construct
Assay type: cell-based
Conditions: HepG2 cells infected with pdelE1sp1B-1.6CAT, a-NF 50 mM
Description: DNA coding for a promoter/reporter rat glutathione S-transferase Ya subunit 1.6 kb promoter sequence positioned upstream of the chloramphenicol acetyltransferase reporter gene was cloned into the adenovirus shuttle vector pdelE1sp1B, whereby the E1B genome of the adenovirus is deleted and replaced. Successful construction of the shuttle vector, pdelE1sp1B-1.6CAT was verified by both restriction mapping and by sequencing across the 5′- and 3′-ends of the cloning sites. In addition, the shuttle vector was tested functionally in HepG2 cells for regulation of expression of CAT by a-napthoflavone ([…]).
HepG2 cells were seeded in 12- or 24-well plates at a density of 60-70% confluence. Cells were infected the following day with Ad1.6CAT (9.7×10^8 pfu/ml) at an MOI of 5 for 1 h. At the end of the infection period the virus was removed, the cells were rinsed once with PBS, and fresh media was placed on the cells. […]
HepG2 cells were harvested at various time points following induction of CAT expression. […] CAT activity determined by the method of Gorman et al. using 10 ug of protein for 60 minute at 37° C. Acetylated products of chloramphenicol were extracted with mixed xylenes and quantitated by liquid scintillation counting. Results were expressed as fold induction versus control.

- Induction of CAT activity (fold induction versus control) (after 24 hours): approximately 45 fold
- Induction of CAT activity (fold induction versus control) (after 48 hours): approximately 85 fold
SMILES: O=c1cc(-c2ccccc2)oc2c1ccc1ccccc12 [a-NF, a-napthoflavone]
